Values joined by “and” are separate entries in the source; they are usually repeats but may differ in a detail not shown here. Equal values may be shown once.
Experiments:
[1] = system: Victoria mixed culture, containing strain VS; experiment: Batch dechlorination and growth kinetics, Victoria mixed culture; format: cell-based, Dehalococcoides species strain VS
Excerpt: (§1) Stock cultures. The Victoria mixed culture, containing strain VS, was maintained in a closed continuously stirred tank reactor (CSTR) as previously described. A VC enrichment of this culture, maintained over 5 years, was also used in these investigations. Liquid cultures of the three other cultures evaluated (Pinellas, KB-1/VC, and Dehalococcoides ethenogenes strain 195) were kept in anaerobic bottles, stored in an anaerobic chamber (10% H2, 10% CO2, 80% N2). The bottles were amended with TCE (1-3 μL neat liquid), VC (250 μL gas), and PCE (1-3 μL neat liquid) being added to each, respectively, approximately every two weeks.
(§2) Batch studies. For the experimental portion of this research, two studies were undertaken, one a comparative VC growth study, and the other a comparative growth and substrate utilization study with different chlorinated ethenes. These studies compared the dechlorination abilities of Dehalococcoides ethenogenes strain 195 and the Dehalococcoides-like microorganisms in the three mixed cultures (Victoria, KB-1/VC, and Pinellas).
(§3) For the first study, a VC enriched inoculum was first developed for each of the three mixed cultures. Here, bottles (120 mL) were filled with 60 mL of anaerobic media in an anaerobic chamber as previously described, and inoculated with 200 μL of each stock culture. Gaseous VC (99.5%) was added with a gas tight syringe (200 μL). The cultures were then moved to a shaker (60-80 rpm) in an anaerobic chamber (20±2° C.). Immediately after 5 μmol of ethene was formed in a bottle, 200 μL of the culture was transferred to fresh media (60 mL), in triplicate, and VC was again added (200 μL). The inoculum for the growth study was that formed after exactly 4 μmol of ethene was produced following this second transfer. To compare growth rates on VC, a range in concentration of each inocula (0.1, 0.3, 1, 3, 9 mL) was transferred to fresh media (as above) to result in a liquid volume of 60 mL, and gaseous VC (200 μL) was added to each. […] Hydrogen served as the electron donor and was non-limiting (>3%) in all studies. Headspace samples were periodically removed by syringe (250 μL) for chlorinated ethene analyses.
(§4) The purpose of the second study was to compare dechlorination rates of PCE, TCE and DCE between the three different cultures that grew on VC (Victoria, KB-1/VC and Pinellas). The development of inocula here was performed with VC, just as in the first study. For the growth and substrate utilization experiments, triplicate bottles were set up for each culture containing 1 mL of inoculum and either neat PCE (0.4 μL), neat TCE (0.3 μL), saturated DCE solution (34 μL) or gaseous VC (200 μL). To further investigate TCE removal, bottles (120 mL) were filled with 20 mL of a highly enriched culture of strain VS made from the Victoria culture. Duplicate bottles were supplied with gaseous VC (50 μL on day 0, then 150 μL on day 3) or TCE (0.4 μL neat liquid). Dechlorination was followed until all VC or TCE was converted to ethene (day 12). The change in strain VS concentration during VC and TCE utilization was then determined both by competitive PCR and by an activity procedure evaluated previously for strain VS. In the activity procedure a non-growth limiting concentration of VC (150 μL) along with excess hydrogen is added to a culture and the initial dechlorination rate is measured (over <1 day). A good estimate of strain VS concentration can then be obtained using the previously determined strain VS maximum VC utilization rate (7.8×10^−10 μmol Cl^− (cell·d)^−1). The increase in strain VS concentration during TCE or VC utilization was determined with these two procedures on the culture before and after TCE and VC utilization.
(§5) Comparative dechlorination and growth kinetics. With mixed cultures, the concentration of organisms carrying out a particular reaction is generally unknown and difficult to determine. […]

[2] = system: Dehalococcoides ethenogenes strain 195; experiment: Batch dechlorination, D. ethenogenes strain 195 culture; format: cell-based; settings: cultures supplied with VC or DCE
Excerpt: as §1, §2
For the first study, a VC enriched inoculum was first developed for each of the three mixed cultures. Here, bottles (120 mL) were filled with 60 mL of anaerobic media in an anaerobic chamber as previously described, and inoculated with 200 μL of each stock culture. Gaseous VC (99.5%) was added with a gas tight syringe (200 μL). […]

[3] = system: KB-1/VC culture; experiment: Batch dechlorination and growth kinetics, KB-1/VC culture; format: cell-based, Dehalococcoides-like microorganisms
Excerpt: as §1, §2, §3, §4, §5

[4] = system: Pinellas culture; experiment: Batch dechlorination and growth kinetics, Pinellas culture; format: cell-based, Dehalococcoides-like microorganisms
Excerpt: as §1, §2, §3, §4, §5

[5] = system: VC reductive dehalogenase of Dehalococcoides sp. strain VS; experiment: VC-reduction enzyme assay with Ti(III)-reduced methyl viologen as electron donor, gas chromatography; format: biochemical
Procedure: Enzyme assays. Cells were harvested by centrifugation (20,000 g, 20 min, 4° C.) under strictly anoxic conditions using the anoxic chamber, washed and resuspended in degassed MOPS buffer (20 mM, pH 7.2) supplemented with 2 mM DTE and 0.2 mM titanium(III)NTA (buffer A). The buffer was incubated overnight in the anoxic chamber before addition of reducing agents. Cell-free extracts were obtained by anoxic disruption of cells by French Press treatment (138 MPa; two passages), followed by two centrifugation steps (30,000×g, 15 min, 4° C.).
Assays of VC-reduction were conducted as described previously in 2-ml glass vials under an N2/H2 atmosphere with Ti(III)-reduced methyl viologen as artificial electron donor (Rosner et al.) The protein concentration in the assay varied between 10 and 100 μg/ml. The test was started by addition of gaseous VC to the assay mix (total aqueous volume 0.3 ml), and change in VC and ethene concentrations were followed with time by gas chromatography. Experiments testing for reduction of liquid chlorinated ethenes (PCE, TCE, DCE-isomers) were carried out essentially as described above with the appropriate substitution of the chlorinated ethene. The chlorinated compounds were added from aqueous stock solutions.
Oxygen sensitivity of VC-reducing activity in cell-free extract was investigated in buffer amended with resazurin as redox indicator. Prior to addition of VC, the assay was exposed to air until the resazurin underwent a color-change from colorless to pink. Subsequently, the assay was rendered anoxic again by exchanging the gas phase inside the anoxic chamber followed by addition of Ti(III)NTA (5 mM final concentration). All enzyme assays were carried out at ambient temperature, and given activities are means of at least three independent measurements.
Partial purification of VC reductase. Protein purification was performed at 4° C. in the anoxic chamber. The membrane fraction was obtained by centrifugation of cell-free extract at 100,000×g for 90 min at 4° C. The pellet was resuspended in 1 ml buffer A supplemented with 2 mM 3-[(3-cholamidopropyl)dimethylammonio]-1-propanesulfonic acid (CHAPS), and incubated for 1 h on ice. After subsequent centrifugation (100,000×g, 90 min, 4° C.) the solubilized membrane fraction was diluted with an equal volume of buffer B (50 mM 1,3-Bis[tris(hydroxymethyl)methylamino]propane (Bis-Tris Propane), pH 9.6, 2 mM dithiothreitol, 0.2 mM titanium(III)NTA, 20 mM CHAPS), and loaded on a 1-ml HighTrap Q column (Amersham Pharmacia) equilibrated with buffer C (same as buffer B but with 2 mM CHAPS). VC reductive dehalogenase activity was eluted as a single peak (at 550 to 580 mM NaCl) with 10 ml buffer C followed by a 40-ml linear gradient from 0-700 mM NaCl in buffer C at a flow of 1 ml/min. Fractions containing the highest activity were pooled and mixed with an equal volume of buffer A containing 20 mM CHAPS, and applied to a Superose-6 column equilibrated with the same buffer. Enzyme activity was eluted with buffer A at a flow rate of 0.2 ml/min. The protein concentration of the samples was determined according to Bradford with bovine serum albumin as a standard.

## Cl/C=C\Cl [DCE, cis-1,2-dichloroethene]
[1]; VS Mixed (Victoria) culture, 95% confidence interval, least-squares model fit
  Maximum Growth Rate: 0.46 ± 0.04 day⁻¹
[2]
  dechlorination by D. ethenogenes strain 195: did dechlorinate DCE to VC
[3]; 95% confidence interval
  Maximum Growth Rate: 0.44 ± 0.02 day⁻¹
[4]; 95% confidence interval
  Maximum Growth Rate: 0.43 day⁻¹ and 0.43 ± 0.00 day⁻¹

## ClC(Cl)=C(Cl)Cl [PCE, tetrachloroethene]
[1]; Victoria mixed culture
  lag period before PCE dechlorination: 6 to 12 days
[5]; 2 h
  transformation during the course of the enzyme assay: not transformed
[5]; saturating concentrations of PCE or TCE present
  effect on the reduction rate of VC: not affected
[3]
  PCE dechlorination: failed to dechlorinate
[4]
  PCE dechlorination: failed to dechlorinate

B1: VC reductive dehalogenase: VC reductive dehalogenase partially purified from Dehalococcoides sp. strain VS; corrinoid/iron-sulfur cluster reductive dehalogenase (protein)
chain: MSKFHKTISRRDFMKGLGLAGAGIGAVAASAPVFHDIDELVSSEANSTKDQPWYVKHREHFDPTITVDWDIFDRYDGYQHKGVYEGPPDAPFTSWGNRLQVRMSGEEQKKRILAAKKERFPGWDGGLHGRGDQRADALFYAVTQPFPGSGEEGHGLFQPYPDQPGKFYARWGLYGPPHDSAPPDGSVPKWEGTPEDNFLMLRAAAKYFGAGGVGALNLADPKCKKLIYKKAQPMTLGKGTYSEIGGPGMIDAKIYPKVPDHAVPINFKEADYSYYNDAEWVIPTKCESIFTFTLPQPQELNKRTGGIAGAGSYTVYKDFARVGTLVQMFIKYLGYHALYWPIGWGPGGCFTTFDGQGEQGRTGAAIHWKFGSSQRGSERVITDLPIAPTPPIDAGMFEFCKTCYICRDVCVSGGVHQEDEPTWDSGNWWNVQGYLGYRTDWSGCHNQCGMCQSSCPFTYLGLENASLVHKIVKGVVANTTVFNSFFTNMEKALGYGDLTMENSNWWKEEGPIYGFDPGT
modifications: partially purified native enzyme; Dehalococcoides sp. VS
[5]; step: Anionic exchange chromotagraphy
  Sp act (VC reduction): 638 mU/mg protein
[5]; step: Cell-free extract, 1 mU = 1 nmol VC per minute
  Sp act (VC reduction): 220 mU/mg protein
[5]; step: Gelfiltration
  Sp act (VC reduction): 990 mU/mg protein
[5]; step: Membrane fraction
  Sp act (VC reduction): 346 mU/mg protein
[5]; step: Solubilized membrane fraction
  Sp act (VC reduction): 308 mU/mg protein

Reference: patent US8647824B2, “Microbial reductive dehalogenation of vinyl chloride” (The Board of Trustees of the Leland Stanford Junior …, priority 2004, dated 2014)
